In PubChem BioAssay (NCI):
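GI50 = concentration required for 50% inhibition of growth. TGI: total growth inhibition.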

Tests used:
Test in all cases: growth of human tumour cells (NCI), 384-well format
[1] = tested on: 786-0 renal
[2] = tested on: A498 renal
[3] = tested on: A549 NSCLC
[4] = tested on: ACHN renal
[5] = tested on: BT-549 breast
[6] = tested on: CAKI-1 renal
[7] = tested on: CCRF-CEM leukemia
[8] = tested on: COLO 205 colon
[9] = tested on: DU-145 prostate
[10] = tested on: EKVX NSCLC
[11] = tested on: HCC-2998 colon
[12] = tested on: HCT-116 colon
[13] = tested on: HCT-15 colon
[14] = tested on: HL-60(TB) leukemia
[15] = tested on: HOP-62 NSCLC
[16] = tested on: HOP-92 NSCLC
[17] = tested on: HS 578T breast
[18] = tested on: HT29 colon
[19] = tested on: IGROV1 ovarian
[20] = tested on: K-562 leukemia
[21] = tested on: KM12 colon
[22] = tested on: LOX IMVI melanoma
[23] = tested on: M14 melanoma
[24] = tested on: MALME-3M melanoma
[25] = tested on: MCF7 breast
[26] = tested on: MDA-MB-231 breast
[27] = tested on: MDA-MB-435 melanoma
[28] = tested on: MDA-MB-468 breast
[29] = tested on: MOLT-4 leukemia
[30] = tested on: NCI-H226 lung
[31] = tested on: NCI-H23 lung
[32] = tested on: NCI-H322M lung
[33] = tested on: NCI-H460 NSCLC
[34] = tested on: NCI-H522 lung
[35] = tested on: NCI/ADR-RES ovarian
[36] = tested on: OVCAR-3 ovarian
[37] = tested on: OVCAR-4 ovarian
[38] = tested on: OVCAR-5 ovarian
[39] = tested on: OVCAR-8 ovarian
[40] = tested on: PC-3 prostate
[41] = tested on: RPMI-8226 leukemia
[42] = tested on: RXF 393 renal
[43] = tested on: SF-268 CNS
[44] = tested on: SF-295 CNS
[45] = tested on: SF-539 CNS
[46] = tested on: SK-MEL-2 melanoma
[47] = tested on: SK-MEL-28 melanoma
[48] = tested on: SK-MEL-5 melanoma
[49] = tested on: SK-OV-3 ovarian
[50] = tested on: SN12C renal
[51] = tested on: SNB-19 CNS
[52] = tested on: SNB-75 CNS
[53] = tested on: SR leukemia
[54] = tested on: SW-620 colon
[55] = tested on: T-47D breast
[56] = tested on: TK-10 renal
[57] = tested on: U251 glioblastoma
[58] = tested on: UACC-257 melanoma
[59] = tested on: UACC-62 melanoma

## COc1ccc(S(=O)(=O)N2CCNCC2)cc1OC
[1]
  GI50: > 100 µM
  TGI: > 100 µM
[2]
  GI50: > 100 µM
  TGI: > 100 µM
[3]
  GI50: > 100 µM
  TGI: > 100 µM
[4]
  GI50: > 100 µM
  TGI: > 100 µM
[5]
  GI50: > 100 µM
  TGI: > 100 µM
[6]
  GI50: > 100 µM
  TGI: > 100 µM
[7]
  GI50: > 100 µM
  TGI: > 100 µM
[8]
  GI50: > 100 µM
  TGI: > 100 µM
[9]
  GI50: > 100 µM
  TGI: > 100 µM
[10]
  GI50: > 100 µM
  TGI: > 100 µM
[11]
  GI50: > 100 µM
  TGI: > 100 µM
[12]
  GI50: > 100 µM
  TGI: > 100 µM
[13]
  GI50: > 100 µM
  TGI: > 100 µM
[14]
  GI50: > 100 µM
  TGI: > 100 µM
[15]
  GI50: > 100 µM
  TGI: > 100 µM
[16]
  GI50: > 100 µM
  TGI: > 100 µM
[17]
  GI50: > 100 µM
  TGI: > 100 µM
[18]
  GI50: > 100 µM
  TGI: > 100 µM
[19]
  GI50: > 100 µM
  TGI: > 100 µM
[20]
  GI50: > 100 µM
  TGI: > 100 µM
[21]
  GI50: > 100 µM
  TGI: > 100 µM
[22]
  GI50: > 100 µM
  TGI: > 100 µM
[23]
  GI50: > 100 µM
  TGI: > 100 µM
[24]
  GI50: > 100 µM
  TGI: > 100 µM
[25]
  GI50: > 100 µM
  TGI: > 100 µM
[26]
  GI50: > 100 µM
  TGI: > 100 µM
[27]
  GI50: > 100 µM
  TGI: > 100 µM
[28]
  GI50: > 100 µM
  TGI: > 100 µM
[29]
  GI50: > 100 µM
  TGI: > 100 µM
[30]
  GI50: > 100 µM
  TGI: > 100 µM
[31]
  GI50: > 100 µM
  TGI: > 100 µM
[32]
  GI50: > 100 µM
  TGI: > 100 µM
[33]
  GI50: > 100 µM
  TGI: > 100 µM
[34]
  GI50: > 100 µM
  TGI: > 100 µM
[35]
  GI50: > 100 µM
  TGI: > 100 µM
[36]
  GI50: > 100 µM
  TGI: > 100 µM
[37]
  GI50: > 100 µM
  TGI: > 100 µM
[38]
  GI50: > 100 µM
  TGI: > 100 µM
[39]
  GI50: > 100 µM
  TGI: > 100 µM
[40]
  GI50: > 100 µM
  TGI: > 100 µM
[41]
  GI50: > 100 µM
  TGI: > 100 µM
[42]
  GI50: > 100 µM
  TGI: > 100 µM
[43]
  GI50: > 100 µM
  TGI: > 100 µM
[44]
  GI50: > 100 µM
  TGI: > 100 µM
[45]
  GI50: > 100 µM
  TGI: > 100 µM
[46]
  GI50: > 100 µM
  TGI: > 100 µM
[47]
  GI50: > 100 µM
  TGI: > 100 µM
[48]
  GI50: > 100 µM
  TGI: > 100 µM
[49]
  GI50: > 100 µM
  TGI: > 100 µM
[50]
  GI50: > 100 µM
  TGI: > 100 µM
[51]
  GI50: > 100 µM
  TGI: > 100 µM
[52]
  GI50: > 100 µM
  TGI: > 100 µM
[53]
  GI50: > 100 µM
  TGI: > 100 µM
[54]
  GI50: > 100 µM
  TGI: > 100 µM
[55]
  GI50: > 100 µM
  TGI: > 100 µM
[56]
  GI50: > 100 µM
  TGI: > 100 µM
[57]
  GI50: > 100 µM
  TGI: > 100 µM
[58]
  GI50: > 100 µM
  TGI: > 100 µM
[59]
  GI50: > 100 µM
  TGI: > 100 µM
